Results taken from PubChem BioAssay AID248 (DTP/NCI, 2004).
Where “and” joins values, the source holds several entries; their conditions need not be identical. Identical values can stand only once. Toxic doses and inconclusive results are not listed. Rule as the data show it: active = T/C of 150% or more; inactive = T/C below 125%.

Test system: L1210 leukemia ip in BDF1 mice, survival T/C
Test: NCI In Vivo Anticancer Drug Screen. Data for tumor model L1210 Leukemia (intraperitoneal) in B6D2F1 (BDF1) mice
Details: endpoint: mean survival time, higher = longer survival
How it was run: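 Ratio derived from survival: compound-dosed mice over vehicle-dosed mice, all bearing a transplantable tumor.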

Measured: T/C

CN(Cc1cnc2nc(N)nc(N)c2n1)c1c(Cl)cc(C(=O)NC(CCC(=O)O)C(=O)O)cc1Cl (centres undefined)
inactive: dose: 40.0 mg/kg/injection, schedule: Q01DX Z (oral), vehicle: alkali diluted with saline 102 % of control | dose: 50.0 mg/kg/injection, schedule: Q## X003 (ip), vehicle: other 124 % of control | dose: 50.0 mg/kg/injection, schedule: Q## X016 (ip), vehicle: other 121 % of control | dose: 70.0 mg/kg/injection, schedule: Q01DX001 (ip), vehicle: methylcellulose (MC) 116 % of control | dose: 70.0 mg/kg/injection, schedule: Q01DX Z (ip), vehicle: clinical formulation 103 % of control | dose: 70.0 mg/kg/injection, schedule: Q07DX Z (ip), vehicle: methylcellulose (MC) 116 % of control | dose: 80.0 mg/kg/injection, schedule: Q01DX Z (im), vehicle: alkali diluted with saline 113 % of control | dose: 80.0 mg/kg/injection, schedule: Q01DX Z (oral), vehicle: alkali diluted with saline 94 % of control | dose: 80.0 mg/kg/injection, schedule: Q01DX Z (sc), vehicle: alkali diluted with saline 112 % of control | dose: 90.0 mg/kg/injection, schedule: Q01DX Z (ip), vehicle: saline 94 % of control | dose: 100.0 mg/kg/injection, schedule: Q01DX001 (sc), vehicle: carboxymethylcellulose (CMC) 111 % of control | dose: 100.0 mg/kg/injection, schedule: Q04DX003 (ip), vehicle: alkali diluted with saline 124 % of control | dose: 120.0 mg/kg/injection, schedule: Q01DX001 (ip), vehicle: carboxymethylcellulose (CMC) 117 % of control | dose: 120.0 mg/kg/injection, schedule: Q## X008 (ip), vehicle: other 112 % of control | dose: 140.0 mg/kg/injection, schedule: Q01DX001 (ip), vehicle: methylcellulose (MC) 116 % of control | dose: 140.0 mg/kg/injection, schedule: Q01DX Z (ip), vehicle: clinical formulation 110 % of control | dose: 140.0 mg/kg/injection, schedule: Q07DX Z (ip), vehicle: methylcellulose (MC) 123 % of control | dose: 200.0 mg/kg/injection, schedule: Q01DX001 (sc), vehicle: carboxymethylcellulose (CMC) 114 % of control | dose: 200.0 mg/kg/injection, schedule: Q01DX001 (sc), vehicle: other 121 % of control | dose: 240.0 mg/kg/injection, schedule: Q01DX001 (ip), vehicle: alkali diluted with saline 115 % of control | dose: 240.0 mg/kg/injection, schedule: Q01DX001 (ip), vehicle: other 113 % of control | dose: 240.0 mg/kg/injection, schedule: Q## X008 (ip), vehicle: other 112 % of control | dose: 285.0 mg/kg/injection, schedule: Q01DX001 (ip), vehicle: carboxymethylcellulose (CMC) 110 % of control | dose: 400.0 mg/kg/injection, schedule: Q01DX001 (ip), vehicle: olive oil, sesame oil, peanut oil 114 % of control | dose: 400.0 mg/kg/injection, schedule: Q01DX001 (sc), vehicle: other 121 % of control | dose: 400.0 mg/kg/injection, schedule: Q07DX Z (ip), vehicle: olive oil, sesame oil, peanut oil 97 % of control | dose: 434.0 mg/kg/injection, schedule: Q01DX001 (ip), vehicle: carboxymethylcellulose (CMC) 121 % of control | dose: 480.0 mg/kg/injection, schedule: Q01DX001 (ip), vehicle: alkali diluted with saline 122 % of control | dose: 560.0 mg/kg/injection, schedule: Q01DX001 (ip), vehicle: methylcellulose (MC) 123 % of control | dose: 800.0 mg/kg/injection, schedule: Q01DX001 (ip), vehicle: olive oil, sesame oil, peanut oil 109 % of control and 120 % of control | dose: 800.0 mg/kg/injection, schedule: Q07DX Z (ip), vehicle: olive oil, sesame oil, peanut oil 106 % of control | dose: 1200.0 mg/kg/injection, schedule: Q01DX001 (ip), vehicle: olive oil, sesame oil, peanut oil 115 % of control and 122 % of control | dose: 1200.0 mg/kg/injection, schedule: Q07DX Z (ip), vehicle: olive oil, sesame oil, peanut oil 95 % of control | dose: 1600.0 mg/kg/injection, schedule: Q04DX003 (ip), vehicle: alkali diluted with saline 98 % of control | dose: 1600.0 mg/kg/injection, schedule: Q07DX Z (ip), vehicle: olive oil, sesame oil, peanut oil 101 % of control
active: dose: 40.0 mg/kg/injection, schedule: Q01DX009 (ip), vehicle: carboxymethylcellulose (CMC) 161 % of control | dose: 40.0 mg/kg/injection, schedule: Q01DX Z (ip), vehicle: methylcellulose (MC) 169 % of control | dose: 67.5 mg/kg/injection, schedule: Q01DX Z (ip), vehicle: saline 150 % of control | dose: 80.0 mg/kg/injection, schedule: Q01DX005 (ip), vehicle: carboxymethylcellulose (CMC) 158 % of control | dose: 80.0 mg/kg/injection, schedule: Q01DX006 (iv), vehicle: alkali diluted with saline 165 % of control | dose: 120.0 mg/kg/injection, schedule: Q03DX Z (ip), vehicle: methylcellulose (MC) 153 % of control | dose: 200.0 mg/kg/injection, schedule: Q04DX003 (ip), vehicle: carboxymethylcellulose (CMC) 157 % of control | dose: 200.0 mg/kg/injection, schedule: Q## X016 (ip), vehicle: other 162 % of control | dose: 400.0 mg/kg/injection, schedule: Q04DX003 (ip), vehicle: alkali diluted with saline 166 % of control | dose: 800.0 mg/kg/injection, schedule: Q04DX003 (ip), vehicle: alkali diluted with saline 168 % of control | dose: 800.0 mg/kg/injection, schedule: Q## X003 (ip), vehicle: other 169 % of control | dose: 800.0 mg/kg/injection, schedule: Q## X016 (ip), vehicle: other 165 % of control | dose: 875.0 mg/kg/injection, schedule: Q01DX001 (ip), vehicle: alkali diluted with saline 158 % of control | dose: 960.0 mg/kg/injection, schedule: Q01DX001 (ip), vehicle: carboxymethylcellulose (CMC) 158 % of control
